The values below come from paper PMC7356589, “Hybrid Gold(I) NHC-Artemether Complexes to Target Falciparum Malaria Parasites” (Molecules, 2020).

Like-named read-outs stand apart in the source and are kept apart here.

For series [1], the system named is P. falciparum strain F32-TEM (F32-Tanzania). The experiment in a line: In vitro antiplasmodial activity (SYBR Green fluorescence and [3H] hypoxanthine assays). The class given is cell-based, Plasmodium falciparum. How it is done: In vitro antiplasmodial activities of the synthesized hybrid molecules were evaluated against the P. falciparum strain F32-TEM (corresponding to the parental strain F32-Tanzania). Each molecule was tested at least in three independent experiments (except Aubis(5-Bn), tested twice) by a SYBR Green Fluorescence assay but also at least once with the standard chemosensitivity assay recommended by the WHO and based on the incorporation of [^3H] hypoxanthine.
For the SYBR Green Fluorescence assay, ring stage parasites were treated with the drugs for 48 h. Then, the pellets were washed twice with PBS and frozen at −20 °C. Thawed plates were incubated for 2 h at room temperature with the SYBR Green (Thermo-Fisher, Illkirch, France) lysis buffer (20 mm Tris base pH 7.5, 5 mm EDTA, 0.008% w/v saponin, 0.08% w/v Triton X-100). The plates were then read using a fluorescence plate reader (FLx800, BioTek, Illkirch, France) at an excitation wavelength of 485 nm and 535 nm for the emission wavelength. The IC50 values (concentration inhibiting 50% of the parasite’s growth) were determined using GraphPad Prism software 7 (GraphPad Software, San Diego, CA, USA).
For [^3H] hypoxanthine assay, ring stage parasites were incubated with the drug dilutions for 24 h, then, [^3H] hypoxanthine (50 μL/0.25 μCi; Perkin-Elmer, Courtaboeuf, France) was added for another 24 h period. After that, plates were frozen at −20 °C. The next step is to thaw the plates and to collect the nucleic acids. Tritium incorporation was then determined thanks to a β-counter (Perkin-Elmer, Courtaboeuf, France).
The antiplasmodial activities reported in Table 1 correspond thus to the mean of IC50 values from at least 4 independent experiments acquired by the two methods, SYBR Green and radioactivity.

The test system of another series is Vero cell line. Briefly: Cytotoxicity on Vero cells (MTT). In kind it is cell-based, monkey. The following applies: for IC50: Vero cells, 48 h, MTT, read-out: Cytotoxicity on Vero Cells IC50 ± SEM. On the procedure: The cells were cultured in MEM medium (Dutscher, Brumath, France) supplemented with 10% fetal bovine serum (Dutscher), 0.7 mM glutamine and 100 μg/mL gentamicin. The cells were seeded at 10^4 cells per well in a 96-well plates and incubated during 24 h. Then, cells were incubated for additional 48 h with the drugs. […] Subsequently, DMSO was added to the wells containing the cells and MTT to dissolve the formed crystals. The plates were then read to determine the absorbance at wavelength of 540 nm (µQuant, BioTek, Illkirch, France). Cell proliferation was calculated from at least three independent experiments using GraphPad Prism software 7 (GraphPad Software, San Diego, CA, USA). The cytotoxic/antiplasmodial activity ratio corresponds to the selectivity index.

Setting [2] is: strain F32-Tanzania (F32-TEM), mean of at least 4 experiments, SYBR Green and radioactivity assays, 48 h, read-out: Antiplasmodial Activity on P. falciparum IC50 ± SEM.
The mark [3] stands for this setting: Plasmodium falciparum, F32, 48 h, strain F32-Tanzania (F32-TEM), mean of at least 4 experiments, SYBR Green and radioactivity assays, read-out: Antiplasmodial Activity on P. falciparum IC50 ± SEM.

The IC50 is the concentration at which inhibition is half-maximal. As to `CO[C@H]1O[C@@H]2O[C@@]3(C)CC[C@H]4[C@H](C)CC[C@@H]([C@H]1C)[C@@]24OO3` [Artemether], in series [1] (Plasmodium falciparum, F32, 48 h, read-out: Antiplasmodial Activity on P. falciparum IC50 ± SEM, strain F32-Tanzania (F32-TEM), mean of at least 4 experiments, SYBR Green and radioactivity assays), the IC50 was 6.1 ± 1 nM. The “Selectivity Index Vero Cells/P. falciparum” value with Vero cell line (cytotoxic/antiplasmodial activity ratio) is recorded as 35 000.

For the compound `C[C@@H]1CCC2[C@@H](C)[C@@H](OCCCn3cc[n+](Cc4ccccc4)[c]3[Au-][c]3n(CCCO[C@H]4O[C@@H]5O[C@@]6(C)CCC7[C@H](C)CCC([C@H]4C)[C@]75OO6)cc[n+]3Cc3ccccc3)O[C@@H]3O[C@@]4(C)CCC1[C@@]23OO4.[Cl-]` (some centres unmarked) [Aubis(3-Bn)], the IC50 in series [1] (setting [2]) worked out at 22 ± 3 nM; in the series with Vero cell line, 300 nM.

For `Cc1cc(C)c(-[n+]2ccn(CCCO[C@H]3O[C@@H]4O[C@@]5(C)CCC6[C@H](C)CCC([C@H]3C)[C@]64OO5)[c]2[Au-][c]2n(CCCO[C@H]3O[C@@H]4O[C@@]5(C)CCC6[C@H](C)CCC([C@H]3C)[C@]64OO5)cc[n+]2-c2c(C)cc(C)cc2C)c(C)c1.[Cl-]` (some centres unmarked) [Aubis(3-Mes)], the IC50 in series [1] (setting [2]) was 61 ± 37 nM; in the series with Vero cell line, 500 nM.

Turning to `C[C@@H]1CCC2[C@@H](C)[C@@H](OCCCn3cc[n+](-c4ccc5ccccc5n4)[c]3[Au-][c]3n(CCCO[C@H]4O[C@@H]5O[C@@]6(C)CCC7[C@H](C)CCC([C@H]4C)[C@]75OO6)cc[n+]3-c3ccc4ccccc4n3)O[C@@H]3O[C@@]4(C)CCC1[C@@]23OO4.[Cl-]` (some centres unmarked) [Aubis(3-Quin)], the IC50 in series [1] (setting [2]) is 23 ± 8 nM; with Vero cell line it was 1200 nM.

For `CC(C)[n+]1ccn(CCCO[C@H]2O[C@@H]3O[C@@]4(C)CCC5[C@H](C)CCC([C@H]2C)[C@]53OO4)[c]1[Au-][c]1n(CCCO[C@H]2O[C@@H]3O[C@@]4(C)CCC5[C@H](C)CCC([C@H]2C)[C@]53OO4)cc[n+]1C(C)C.[Cl-]` (some centres unmarked) [Aubis(3-iPr)], the IC50 in series [1] (setting [2]) worked out at 13 ± 5 nM; with Vero cell line it was 700 nM.

Regarding `C[C@@H]1CCC2[C@@H](C)[C@@H](OCCCCn3cc[n+](Cc4ccccc4)[c]3[Au-][c]3n(CCCCO[C@H]4O[C@@H]5O[C@@]6(C)CCC7[C@H](C)CCC([C@H]4C)[C@]75OO6)cc[n+]3Cc3ccccc3)O[C@@H]3O[C@@]4(C)CCC1[C@@]23OO4.[Cl-]` (some centres unmarked) [Aubis(4-Bn)], the IC50 in series [1] (setting [2]) worked out at 40 ± 21 nM; in the series with Vero cell line it was 700 nM.

With `Cc1cc(C)c(-[n+]2ccn(CCCCO[C@H]3O[C@@H]4O[C@@]5(C)CCC6[C@H](C)CCC([C@H]3C)[C@]64OO5)[c]2[Au-][c]2n(CCCCO[C@H]3O[C@@H]4O[C@@]5(C)CCC6[C@H](C)CCC([C@H]3C)[C@]64OO5)cc[n+]2-c2c(C)cc(C)cc2C)c(C)c1.[Cl-]` (some centres unmarked) [Aubis(4-Mes)], the results for the IC50 (in series [1] (setting [2]); with Vero cell line) were 38 ± 3 nM and 700 nM, respectively.

`C[C@@H]1CCC2[C@@H](C)[C@@H](OCCCCn3cc[n+](-c4ccc5ccccc5n4)[c]3[Au-][c]3n(CCCCO[C@H]4O[C@@H]5O[C@@]6(C)CCC7[C@H](C)CCC([C@H]4C)[C@]75OO6)cc[n+]3-c3ccc4ccccc4n3)O[C@@H]3O[C@@]4(C)CCC1[C@@]23OO4.[Cl-]` (some centres unmarked) [Aubis(4-Quin)]: the IC50 in series [1] (setting [2]) was 83 ± 31 nM.

`C[C@@H]1CCC2[C@@H](C)[C@@H](OCCCCCn3cc[n+](Cc4ccccc4)[c]3[Au-][c]3n(CCCCCO[C@H]4O[C@@H]5O[C@@]6(C)CCC7[C@H](C)CCC([C@H]4C)[C@]75OO6)cc[n+]3Cc3ccccc3)O[C@@H]3O[C@@]4(C)CCC1[C@@]23OO4.[Cl-]` (some centres unmarked) [Aubis(5-Bn)]: the IC50 is 72 ± 14 nM in series [1] (setting [2]) and 600 nM with Vero cell line.

Turning to `Cc1cc(C)c(-[n+]2ccn(CCCCCO[C@H]3O[C@@H]4O[C@@]5(C)CCC6[C@H](C)CCC([C@H]3C)[C@]64OO5)[c]2[Au-][c]2n(CCCCCO[C@H]3O[C@@H]4O[C@@]5(C)CCC6[C@H](C)CCC([C@H]3C)[C@]64OO5)cc[n+]2-c2c(C)cc(C)cc2C)c(C)c1.[Cl-]` (some centres unmarked) [Aubis(5-Mes)], in series [1] (setting [2]), the IC50 is 100 ± 12 nM.

Take `C[C@@H]1CCC2[C@@H](C)[C@@H](OCCCCCn3cc[n+](-c4ccc5ccccc5n4)[c]3[Au-][c]3n(CCCCCO[C@H]4O[C@@H]5O[C@@]6(C)CCC7[C@H](C)CCC([C@H]4C)[C@]75OO6)cc[n+]3-c3ccc4ccccc4n3)O[C@@H]3O[C@@]4(C)CCC1[C@@]23OO4.[Cl-]` (some centres unmarked) [Aubis(5-Quin)]: the 50% inhibitory concentration (IC50) is 38 ± 9 nM in series [1] (setting [2]) and 2000 nM in the series with Vero cell line.

With `CC(=O)OC[C@H]1O[C@@H]([S-])[C@H](OC(C)=O)[C@@H](OC(C)=O)[C@@H]1OC(C)=O.CCP(CC)CC.[Au+]` [Auranofin, reference compound], in series [1] (setting [2]), the IC50 turned out to be 1500 nM.

For `C[C@@H]1CCC2[C@@H](C)[C@@H](OCCCn3cc[n+](Cc4ccccc4)c3)O[C@@H]3O[C@@]4(C)CCC1[C@@]23OO4` (stereo partly drawn) [L3-Bn, 3′-Benzyl-1′-[10β-(20-propoxy)dihydroartemisinin]1H-imidazol-3-ium bromide], the IC50 in series [1] (setting [3]) was 351 ± 56 nM.

For the compound `C[C@@H]1CCC2[C@@H](C)[C@@H](OCCCn3cc[n+](C)c3)O[C@@H]3O[C@@]4(C)CCC1[C@@]23OO4` (stereo partly drawn) [L3-Me, 3′-methyl-1′-[10β-(20-propoxy)-dihydroartemisinin]1H-imidazol-3-ium bromide], the IC50 in series [1] (setting [3]) is 935 ± 117 nM.

Consider `Cc1cc(C)c(-[n+]2ccn(CCCO[C@H]3O[C@@H]4O[C@@]5(C)CCC6[C@H](C)CCC([C@H]3C)[C@]64OO5)c2)c(C)c1` (stereo partly drawn) [L3-Mes, 3′-Mesityl-1′-[10β-(20-propoxy)dihydroartemisinin]1H-imidazol-3-ium bromide], for which the IC50 in series [1] (setting [3]) came out at 655 ± 53 nM.

Consider `C[C@@H]1CCC2[C@@H](C)[C@@H](OCCCn3cc[n+](-c4ccc5ccccc5n4)c3)O[C@@H]3O[C@@]4(C)CCC1[C@@]23OO4` (stereo partly drawn) [L3-Quin, 3′-Quinolin-2-yl-1′-[10β-(20-propoxy)dihydroartemisinin]1H-imidazol-3-ium bromide], for which the IC50 in series [1] (setting [3]) came out at 330 ± 69 nM.

For the compound `CC(C)[n+]1ccn(CCCO[C@H]2O[C@@H]3O[C@@]4(C)CCC5[C@H](C)CCC([C@H]2C)[C@]53OO4)c1` (stereo partly drawn) [L3-iPr, 3′-Isopropyl-1′-[10β-(20-propoxy)dihydroartemisinin]1H-imidazol-3-ium bromide], the IC50 in series [1] (setting [3]) is 335 ± 28 nM.

On to `C[C@@H]1CCC2[C@@H](C)[C@@H](OCCCCn3cc[n+](Cc4ccccc4)c3)O[C@@H]3O[C@@]4(C)CCC1[C@@]23OO4` (stereo partly drawn) [L4-Bn, 3′-Benzyl-1′-[10β-(21-butoxy)dihydroartemisinin]1H-imidazol-3-ium bromide], for which the IC50 in series [1] (setting [3]) was determined as 326 ± 44 nM.

Take `C[C@@H]1CCC2[C@@H](C)[C@@H](OCCCCn3cc[n+](C)c3)O[C@@H]3O[C@@]4(C)CCC1[C@@]23OO4` (stereo partly drawn) [L4-Me, 3′-methyl-1′-[10β-(21-butoxy)-dihydroartemisinin]1H-imidazol-3-ium bromide]: the IC50 in series [1] (setting [3]) turned out to be 840 ± 64 nM.

Consider `Cc1cc(C)c(-[n+]2ccn(CCCCO[C@H]3O[C@@H]4O[C@@]5(C)CCC6[C@H](C)CCC([C@H]3C)[C@]64OO5)c2)c(C)c1` (stereo partly drawn) [L4-Mes, 3′-Mesityl-1′-[10β-(21-butoxy)dihydroartemisinin]1H-imidazol-3-ium bromide], for which the IC50 in series [1] (setting [3]) is 219 ± 18 nM.

In the case of `C[C@@H]1CCC2[C@@H](C)[C@@H](OCCCCn3cc[n+](-c4ccc5ccccc5n4)c3)O[C@@H]3O[C@@]4(C)CCC1[C@@]23OO4` (stereo partly drawn) [L4-Quin, 3′-Quinolin-2-yl-1′-[10β-(21-butoxy)dihydroartemisinin]1H-imidazol-3-ium bromide], in series [1] (setting [3]), the IC50 was found to be 330 ± 37 nM.

Take `C[C@@H]1CCC2[C@@H](C)[C@@H](OCCCCCn3cc[n+](C)c3)O[C@@H]3O[C@@]4(C)CCC1[C@@]23OO4` (stereo partly drawn) [L5-Me, 3′-methyl-1′-[10β-(22-pentoxy)-dihydroartemisinin]1H-imidazol-3-ium bromide]: the IC50 in series [1] (setting [3]) was 172 ± 22 nM.

As for `C[C@@H]1CCC2[C@@H](C)[C@@H](OCCCCCn3cc[n+](-c4ccc5ccccc5n4)c3)O[C@@H]3O[C@@]4(C)CCC1[C@@]23OO4` (stereo partly drawn) [L5-Quin, 3′-Quinolin-2-yl-1′-[10β-(22-pentoxy)dihydroartemisinin]1H-imidazol-3-ium bromide], the IC50 in series [1] (setting [3]) is 226 ± 29 nM.
